Earlier results, collected in patent US11466400B2, “Finish composition” (Hexcel Corporation, priority 2018, dated 2022).

- pKa: 1.873
Compound: O=C(O)CNCC(=O)O [Iminodiacetic acid]
